The values that follow come from PMC3715890, “A Cyclic Peptide Inhibitor of HIF-1 Heterodimerization That Inhibits Hypoxia Signaling in Cancer Cells” (Journal of the American Chemical Society, 2013).

“Also recorded” adds a separate entry of the source.

In one test the test system is MCF-7 cells. Briefly: CyQUANT cell proliferation assay, MCF-7. Format: cell-based. As to conditions: 1 μM, positive control, 72 h. The method, then: Sulforhodamine B cytotoxicity assay […]
incubated in hypoxia for 24h.
O.D. value of the experimental set.
CyQUANT cell proliferation assay
The cells were incubated for 5 hours and then treated with Tamoxifen or P1. After 24, 48 or 72 hours, the media was […]
C35006) following the manufacturers instructions. Fluorescence measurements were […]
Workman, P.; Ashcroft, M. Cancer Res 2005, 65, 4918.

Test [1] has as its system HIF-1 (HIF-dependent luciferase reporter, U2OS-HRE-luc cells). The test can be described thus: HIF-1-dependent luciferase reporter assay, U2OS-HRE-luc. It is filed as cell-based, human. The procedure:
(§1) The ability of P1–P3 to disrupt HIF-1 function in cells was assessed using a HIF-1-dependent luciferase reporter assay.[15],[21] The assay uses human osteosarcoma U2OS cells, stably transfected with a HIF-dependent luciferase reporter construct (U2OS-HRE-luc), where activation of HIF results in an increase in luciferase expression.[15]
(§2) Endogenous HIF-1 luciferase reporter assays were conducted as previously reported in U2OS-HRE-luc[15] and MCF-7 cells.[46] For plasmid-expressed HIF-α luciferase reporter assays, MCF-7 and U2OS cells were transiently transfected with plasmids expressing HIF-1α, HIF-2α, or a blank control (pcDNA3.1-HIF-1α, pcDNA3.1-HIF-2α, or pcDNA3.1), a renilla-encoding control (phRL-TK), and a HIF-dependent firefly luciferase reporter construct (pGL2-TK-HRE), using Transfast (Promega) according to the manufacturer’s instructions. After 24 h, cells were recovered and plated (4000 cells/well) in 96-well plates (Perkin-Elmer) and incubated for 5 h before either hypoxic or aerobic incubation in presence or absence of cyclic peptide inhibitors. Firefly and renilla activities were determined using Dual-Glo Reagent (Promega) according to the manufacturer’s instructions. The luciferase signal was normalized using the corresponding renilla values.
Cells were treated with the stated concentrations of inhibitor (P1, P2, or P3) and incubated in normoxia for 4 h, followed by incubation in a hypoxic environment. All manipulation of cell pellets (e.g., lysis, mRNA, and protein extraction) was conducted in a hypoxic environment.

Test [2] has as its system HIF-1 (HIF-dependent luciferase reporter, MCF-7 breast cancer cells). Briefly: HIF-1-dependent luciferase reporter assay, MCF-7. Format: cell-based. The conditions noted are these: MCF-7, 100 μM. The procedure: as §1
as §2, with “values. […]” for “values.”

For the next test, the system named is His-HIF-1α1–350. The test can be described thus: Fluorescent binding assay, HIF-1α. As to conditions: fluorescence at 680 nm, Ni2+-coated plate, 5 µL of 100 µM solution in 95 µL buffer, 1 hour, room temperature.
For the next test, the system named is His-HIF-2α1–351. Briefly: Fluorescent binding assay, HIF-2α. The conditions noted are these: fluorescence at 680 nm, Ni2+-coated plate, 5 µL of 100 µM solution in 95 µL buffer, 1 hour, room temperature.
The target of another test is T1, PAS-B domain of HIF-1α (Homo sapiens, UniProt Q16665).
T1 construct: Per-ARNT-Sim-B (PAS-B, amino acids 235–350) domains; His (N); made in house; host or cells: E. coli BL21(DE3)
Briefly: Fluorescent binding assay, PAS-B. As to conditions: fluorescence at 680 nm, Ni2+-coated plate.

A further test relates to bHLH domain of HIF-1α. The test can be described thus: Fluorescent binding assay, bHLH. The conditions noted are these: fluorescence at 680 nm, Ni2+-coated plate.
For another test, the system named is PAS-A domain of HIF-1α. The test can be described thus: Fluorescent binding assay, PAS-A. As to conditions: fluorescence at 680 nm, Ni2+-coated plate.
The subject of test [3] is U2OS-luc control cell line stably expressing luciferase. Briefly: Control constitutive luciferase reporter, U2OS-luc. It is filed as cell-based, human. From the text: Figure S3: Identification of cyclic peptide HIF-1 inhibitors. (A) SICLOPPS expression is induced by arabinose, which processes to give a member of the cyclic peptide library. A dimerization inhibitor would be expected to rescue growth of the HIF-1 RTHS on selective media plates containing IPTG, kanamycin and 3-amino-triazole, and arabinose. (B) The ability of the selected cyclic peptides to […]
HIF-1 RTHS containing the corresponding SICLOPPS plasmid onto selective media. In the absence of arabinose the SICLOPPS split-intein is not produced; the HIF-1 RTHS containing plasmids encoding […]
colonies show survival on selective media plates containing IPTG and arabinose (panel 2). Expressing the 3 selected cyclic peptides from mutant SICLOPPS inteins (H24A, F26A mutations in the C- […]
cyclic form of the peptides and their activity. […]
expressing a constitutive luciferase reporter construct. […]

The subject of test [4] is HIF-2 (HIF-dependent luciferase reporter, MCF-7 cells). The test can be described thus: HIF-2 luciferase reporter assay, MCF-7. Format: cell-based. The conditions noted are these: MCF-7, transfected HIF-2α.
Source text: (§3) In addition, P1 had no effect on VEGF protein levels in hypoxic 786-O cells (Figure 6B). To further probe the effect of P1 on HIF-2, a luciferase reporter assay was developed and used. The assay was derived from the HIF-1 luciferase reporter assay detailed above (Figure 2C and D) and adapted for HIF-2 by replacing the plasmid encoding HIF-1α with the equivalent plasmid encoding HIF-2α. […] P2 and P3 also had no effect on HIF-2 in this assay (Figure S9).
as §2

The subject of test [5] is HIF-2 (HIF-dependent luciferase reporter, U2OS cells). The test can be described thus: HIF-2 luciferase reporter assay, U2OS. Format: cell-based, human. As to conditions: transfected HIF-2α.
Source text: as §3, §2

In test [6] the test system is HIF-1α/HIF-1β protein–protein interaction. The test can be described thus: HIF-1 bacterial reverse two-hybrid system (RTHS), SICLOPPS-expressed cyclic peptides, drop-spotting. The conditions noted are these: E. coli HIF-1 RTHS, cyclic peptide expressed from SICLOPPS plasmid, 10-fold serial dilutions, compared with the other potential inhibitors. Format: cell-based. The source says: We used our genetically encoded high-throughput screening platform[23]−[25] to identify inhibitors of the HIF-1α/HIF-1β protein–protein interaction. We built and verified the function of a HIF-1 bacterial reverse two-hybrid system (RTHS, for a detailed description see the Supporting Information and Figures S1–S3). The HIF-1 RTHS was used to screen a plasmid-encoded SICLOPPS (split intein circular ligation of peptides and proteins)[26],[27] library of 3.2 million cyclic hexapeptides for HIF-1 dimerization inhibitors.
After the first round of screening, 120 surviving colonies were observed and subjected to several rounds of secondary screening to eliminate false positives and nonselective inhibitors, leaving 12 potential HIF-1 dimerization inhibitors that were ranked by drop-spotting.
The HIF-1 RTHS, associated control RTHS, and SICLOPPS library were constructed as detailed in the Supporting Information. Electrocompetent cells of the HIF-1 RTHS were prepared and transformed with the C+5 SICLOPPS plasmid library. Transformation efficiency, assessed by plating 10-fold serial dilutions of the recovery solution on LB agar supplemented with chloramphenicol (35 μg/mL), was consistently found to be ∼5 × 10^7, thus ensuring adequate coverage of the 3.2 × 10^6 member cyclic peptide library. Transformants were washed with minimal media and plated onto minimal media agar plates supplemented with ampicillin (50 μg/mL), spectinomycin (25 μg/mL), kanamycin (50 μg/mL), 3-AT (7.5 μM), IPTG (100 μM), L-arabinose (6.5 μM), and chloramphenicol (35 μg/mL). The plates were incubated for 2–3 days at 37 °C until individual colonies were visible. Colonies were picked and restreaked onto LB agar plates containing ampicillin (50 μg/mL), spectinomycin (25 μg/mL), and chloramphenicol (35 μg/mL) and incubated overnight at 37 °C.
Surviving colonies from these plates were grown overnight and assessed by drop-spotting 10-fold serial dilutions onto minimal media plates, supplemented with antibiotics, IPTG and 3-AT as above, with and without 6.5 μM L-arabinose. […]

T1 sequence (Q16665 235-350): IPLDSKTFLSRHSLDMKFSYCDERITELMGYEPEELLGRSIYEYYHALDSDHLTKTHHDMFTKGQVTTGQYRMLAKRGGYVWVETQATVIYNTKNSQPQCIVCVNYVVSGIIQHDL

As for `CC/C(=C(\c1ccc(O)cc1)c1ccc(OCCN(C)C)cc1)c1ccccc1` [4-hydroxytamoxifen, reference compound], the “proliferation of MCF-7 cells” value in the test on MCF-7 cells was “inhibited proliferation; also recorded: arrests cell division”.
Regarding “CGRKKRRQRRRPPQ [Tat-tag, Tat-tag alone, control, reference compound]”, the “effect on luciferase signal, Tat-tag alone” value is reported as “did not affect the luciferase signal” in test [1] (U2OS, 100 μM) and “did not affect the luciferase signal” in test [2].
As to “Megastokes dye 673-triazole-(cyclo-ALLFVY) (head to tail) [fluorescent derivative of cyclo-CLLFVY, propargylalanine derivative of cyclo-CLLFVY click-linked to azide-Megastoke dye 673]”, the “binding to His-HIF-1α1–350” value in the test on His-HIF-1α1–350 is on record as “observed binding”. Also, in the test with His-HIF-2α1–351, the “binding to His-HIF-2α1–351” value is listed as “close to background levels”. Also, the “binding to PAS-B domain of HIF-1α” value at PAS-B domain of HIF-1α is on record as “binds the PAS-B domain of HIF-1α”. Moreover, in the test on bHLH domain of HIF-1α, the “binding to bHLH domain of HIF-1α” value is recorded as “close to background level”. For the same compound, the “binding to PAS-A domain of HIF-1α” value in the test on PAS-A domain of HIF-1α is recorded as “close to background level”.
Turning to “Tat-cyclo-CLLRMY (head to tail) [P3, cyclo-CLLRMY tagged with Tat peptide via a disulfide bond]”, in test [1] (U2OS-HRE-luc, hypoxia (1% O2)), the “effect on luciferase reporter in hypoxia” value is recorded as “did not show an effect”. Besides, the “effect on luciferase reporter in normoxia (basal)” value in test [1] (U2OS-HRE-luc, normoxia) is “did not show an effect”. For the same compound, in [3], the “effect on constitutive luciferase signal” value is given as “do not affect”. Besides, the “effect on HIF-2 luciferase reporter signal” value in test [4] and in test [5] was “do not affect” each time.
On to cyclo-CLLFVY (head to tail), for which, in test [6], the “activity ranking by drop-spotting in HIF-1 RTHS” value (shortened to “activity ranking”) is recorded as “significantly more active than the others”.
With cyclo-CLLRMY (head to tail), the “activity ranking” value in [6] is reported as “significantly more active than the others”.
With cyclo-CRLMVL (head to tail), the “activity ranking” value in test [6] is given as “significantly more active than the others”.
